The first assay concerns MDA-MB-231 human breast cancer cells. The assay is described as follows: Cell proliferation assay (CellTiter-Glo, 72 hours treatment). The class given is cell-based. Particulars: Homo sapiens; MDA-MB-231 cells, 72 hours at 37° C., CellTiter-Glo; read-out: MDA-MB-231 cell proliferation assay (IC50). In outline:
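MDA-MB-231 cells seeded at 2,500 cells/well, treated next day with compound or DMSO vehicle for 72 h at 37 °C. Proliferation read by CellTiter-Glo; IC50 from sigmoidal non-linear regression, binned as +++ (<100 nM), ++ (100–1000 nM), + (>1000 nM).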
Background: Cellular ATP, detected with luciferase, serves as a proxy for viable cell number.
Take `COc1cncc2c1[C@]1(O)C(CN3CCOCC3)C[C@@H](c3ccccc3)[C@]1(c1ccc(C(F)(F)F)cc1)O2` (mixture of isomers) [289F, Rac-(4bR,7S,7aR)-4-methoxy-5-(morpholinomethyl)-7-phenyl-7a-(4-(trifluoromethyl)phenyl)-5,6,7,7a-tetrahydro-4bH-cyclopenta[4,5]furo[2,3-c]pyridin-4b-ol]: the IC50 is 100 to 1000 nM.

Regarding `COc1nc(Cl)cc2c1[C@]1(O)[C@H](O)[C@H](CN)[C@@H](c3ccccc3)[C@]1(c1ccc(Br)cc1)O2` (racemic) [292F, Rac-(5aR,6S,7S,8R,8aS)-7-(aminomethyl)-5a-(4-bromophenyl)-3-chloro-1-methoxy-6-phenyl-5a,6,7,8-tetrahydro-8aH-cyclopenta[4,5]furo[3,2-c]pyridine-8,8a-diol], the IC50 was less than 100 nM.

As to `COc1nc(C#N)cc2c1[C@]1(O)[C@H](O)[C@H](CN)[C@@H](c3ccccc3)[C@]1(c1ccc(C#N)cc1)O2` (racemic) [293F, Rac-(5aR,6S,7S,8R,8aS)-7-(aminomethyl)-5a-(4-cyanophenyl)-8,8a-dihydroxy-1-methoxy-6-phenyl-5a,7,8,8a-tetrahydro-6H-cyclopenta[4,5]furo[3,2-c]pyridine-3-carbonitrile], the IC50 is less than 100 nM.

For the compound `COc1nc(Cl)cc2c1[C@]1(O)[C@H](O)[C@H](CN)[C@@H](c3ccccc3)[C@]1(c1ccc(C#N)cc1)O2` (racemic) [294F, Rac-4-((5aR,6S,7S,8R,8aS)-7-(aminomethyl)-3-chloro-8,8a-dihydroxy-1-methoxy-6-phenyl-6,7,8,8a-tetrahydro-5aH-cyclopenta[4,5]furo[3,2-c]pyridin-5a-yl)benzonitrile], the IC50 was less than 100 nM.

Regarding `COc1nc(Cl)cc2c1[C@]1(O)[C@H](O)[C@H](C(=O)O)[C@@H](c3ccccc3)[C@]1(c1ccc(Br)cc1)O2` (racemic) [295F, rac-(5aR,6S,7R,8R,8aS)-5a-(4-bromophenyl)-3-chloro-8,8a-dihydroxy-1-methoxy-6-phenyl-5a,7,8,8a-tetrahydro-6H-cyclopenta[4,5]furo[3,2-c]pyridine-7-carboxylic acid], the IC50 was less than 100 nM.

On to `COc1cncc2c1[C@]1(O)[C@@H](CN3CC4(COC4)C3)[C@H](CO)[C@@H](c3ccccc3)[C@]1(c1ccc(Br)cc1)O2` (racemic) [compound 201, Rac-(4bR,5R,6R,7S,7aR)-5-((2-oxa-6-azaspiro[3.3]heptan-6-yl)methyl)-7a-(4-bromophenyl)-6-(hydroxymethyl)-4-methoxy-7-phenyl-5,6,7,7a-tetrahydro-4bH-cyclopenta[4,5]furo[2,3-c]pyridin-4b-ol], for which the IC50 was less than 100 nM.

For the compound `CN(C)C(=O)[C@H]1[C@@H](O)[C@@]2(O)c3ncc(C#N)cc3O[C@@]2(c2ccc(C#N)cc2)[C@@H]1c1ccccc1` (single isomer, unassigned) [2F], the IC50 was in the range of 100 to 1000 nM.

As to `CN(C)C(=O)[C@H]1[C@@H](O)[C@@]2(O)c3ncc(Cl)cc3O[C@@]2(c2ccc(C#N)cc2)[C@@H]1c1ccccc1` (single isomer, unassigned) [3F], the IC50 is less than 100 nM.

Regarding `COc1ccc([C@@]23Oc4cc(C#N)cnc4[C@]2(O)[C@H](O)[C@H](C(=O)N(C)C)[C@H]3c2ccccc2)cc1` (single isomer, unassigned) [4F], the IC50 lay in the range of 100 to 1000 nM.

Take `COc1ccc([C@@]23Oc4cc(Cl)cnc4[C@]2(O)[C@H](O)[C@H](C(=O)N(C)C)[C@H]3c2ccccc2)cc1` (single isomer, unassigned) [5F]: the IC50 was in the range of 100 to 1000 nM.

Consider `COc1cnc2c(c1)O[C@@]1(c3ccc(C#N)cc3)[C@H](c3ccccc3)[C@@H](C(=O)N(C)C)[C@@H](O)[C@@]21O` (single isomer, unassigned) [6F], for which the IC50 fell in the range of 100 to 1000 nM.

Regarding `Cc1ccc([C@@]23Oc4cc(Cl)cnc4[C@]2(O)[C@H](O)[C@H](C(=O)N(C)C)[C@H]3c2ccccc2)cc1` (single isomer, unassigned) [7F], the IC50 is 100 to 1000 nM.

As to `CN(C)C(=O)[C@H]1[C@@H](O)[C@@]2(O)c3ncc(Cl)cc3O[C@@]2(c2ccc(C(F)(F)F)cc2)[C@@H]1c1ccccc1` (single isomer, unassigned) [8F], the IC50 fell in the range of 100 to 1000 nM.

For `CN(C)C(=O)[C@H]1[C@@H](O)[C@@]2(O)c3ncccc3O[C@@]2(c2ccc(C#N)cc2)[C@@H]1c1ccccc1` (single isomer, unassigned) [9F], the IC50 was more than 1000 nM.

As to `CN(C)C(=O)[C@H]1[C@@H](O)[C@@]2(O)c3ncc(Cl)cc3O[C@@]2(c2ccc(F)cc2)[C@@H]1c1ccccc1` (single isomer, unassigned) [10F], the IC50 was more than 1000 nM.

With `CN(C)C(=O)[C@H]1[C@@H](O)[C@@]2(O)c3ncc(Cl)cc3O[C@@]2(c2ccc(Cl)cc2)[C@@H]1c1ccccc1` (single isomer, unassigned) [11F], the IC50 was in the range of 100 to 1000 nM.

As to `CN(C)C(=O)[C@H]1[C@@H](O)[C@@]2(O)c3ncc(Cl)cc3O[C@@]2(c2ccc(S(C)(=O)=O)cc2)[C@@H]1c1ccccc1` (single isomer, unassigned) [12F], the IC50 is more than 1000 nM.

With `CN(C)C(=O)[C@H]1[C@@H](O)[C@@]2(O)c3ncc(Cl)cc3O[C@@]2(c2ccc(C(F)F)cc2)[C@@H]1c1ccccc1` (single isomer, unassigned) [16F], the IC50 was 100 to 1000 nM.

For the compound `CN(C)C(=O)[C@H]1[C@@H](O)[C@@]2(O)c3ncc(Cl)cc3O[C@@]2(c2ccc(OC(F)(F)F)cc2)[C@@H]1c1ccccc1` (single isomer, unassigned) [17F], the IC50 was 100 to 1000 nM.

Regarding `N#Cc1ccc([C@@]23Oc4cc(Cl)cnc4[C@]2(O)[C@H](O)[C@H](C(N)=O)[C@H]3c2ccccc2)cc1` (single isomer, unassigned) [18F], the IC50 was less than 100 nM.

`CNC(=O)[C@H]1[C@@H](O)[C@@]2(O)c3ncc(Cl)cc3O[C@@]2(c2ccc(C#N)cc2)[C@@H]1c1ccccc1` (single isomer, unassigned) [20F]: the IC50 is less than 100 nM.

With `CN(C)C(=O)[C@H]1[C@@H](O)[C@@]2(O)c3nn(C)cc3O[C@@]2(c2ccc(C#N)cc2)[C@@H]1c1ccccc1` (single isomer, unassigned) [23F], the IC50 is more than 1000 nM.

Take `COc1cncc2c1[C@]1(O)[C@H](O)[C@H](C(=O)N(C)C)[C@@H](c3ccccc3)[C@]1(c1ccc(C#N)cc1)O2` (single isomer, unassigned) [64F]: the IC50 was less than 100 nM.

Consider `COc1cncc2c1[C@]1(O)[C@H](O)[C@H](CN(C)C)[C@@H](c3ccccc3)[C@]1(c1ccc(C#N)cc1)O2` (single isomer, unassigned) [66F], for which the IC50 was less than 100 nM.

For the compound `COc1cncc2c1[C@]1(O)[C@H](O)[C@H](CN3CCNCC3)[C@@H](c3ccccc3)[C@]1(c1ccc(C#N)cc1)O2` (single isomer, unassigned) [67F], the IC50 was in the range of 100 to 1000 nM.

Take `CCN(CC)C[C@H]1[C@@H](O)[C@@]2(O)c3c(OC)cncc3O[C@@]2(c2ccc(C#N)cc2)[C@@H]1c1ccccc1` (single isomer, unassigned) [73F]: the IC50 is less than 100 nM.

Consider `COc1cncc2c1[C@]1(O)[C@@H]3OC(=O)N[C@@H]3[C@@H](c3ccccc3)[C@]1(c1ccc(C#N)cc1)O2` (single isomer, unassigned) [81F], for which the IC50 was less than 100 nM.

With `N#Cc1ccc([C@@]23Oc4cc(Cl)cnc4[C@]2(O)[C@H](O)[C@H](S(=O)(=O)N2CCCC2)[C@H]3c2ccccc2)cc1` (single isomer, unassigned) [83F], the IC50 was less than 100 nM.

Consider `CN(C)C(=O)[C@H]1[C@@H](O)[C@@]2(O)c3ccncc3O[C@@]2(c2ccc(C#N)cc2)[C@@H]1c1ccccc1` (single isomer, unassigned) [95F], for which the IC50 was 100 to 1000 nM.

Take `CN(C)C(=O)[C@H]1[C@@H](O)[C@@]2(O)c3c(Cl)cncc3O[C@@]2(c2ccc(C#N)cc2)[C@@H]1c1ccccc1` (single isomer, unassigned) [98F]: the IC50 lay in the range of 100 to 1000 nM.

Regarding `COc1cncc2c1[C@]1(O)[C@H](O)[C@H](S(C)(=O)=O)[C@@H](c3ccccc3)[C@]1(c1ccc(C#N)cc1)O2` (single isomer, unassigned) [102F], the IC50 is 100 to 1000 nM.

As to `COc1cncc2c1[C@]1(O)[C@H](O)[C@H](CN(C)C)[C@@H](c3ccccc3)[C@]1(c1ccc(C(F)F)cc1)O2` (single isomer, unassigned) [106F], the IC50 was in the range of 100 to 1000 nM.

On to `COc1cncc2c1[C@]1(O)[C@H](O)[C@H](CN(C)C)[C@@H](c3ccccc3)[C@]1(c1ccc(C(F)(F)F)cc1)O2` (single isomer, unassigned) [107F], for which the IC50 is 100 to 1000 nM.

As for `CN(C)C[C@@H]1[C@@H](O)[C@@]2(O)c3ncc(Cl)cc3O[C@@]2(c2ccc(C(F)F)cc2)[C@@H]1c1ccccc1` (single isomer, unassigned) [108F], the IC50 fell in the range of 100 to 1000 nM.

Consider `CN(C)C[C@H]1[C@@H](O)[C@@]2(O)c3ncc(Cl)cc3O[C@@]2(c2ccc(C(F)(F)F)cc2)[C@@H]1c1ccccc1` (single isomer, unassigned) [109F], for which the IC50 is 100 to 1000 nM.

Take `COc1cncc2c1[C@]1(O)[C@H](O)[C@H](CN3CCOCC3)[C@@H](c3ccccc3)[C@]1(c1ccc(C#N)cc1)O2` (single isomer, unassigned) [110F]: the IC50 lay within 100 to 1000 nM.

As to `COc1cncc2c1[C@]1(O)[C@H](O)[C@H](CN(C)CC(F)F)[C@@H](c3ccccc3)[C@]1(c1ccc(C#N)cc1)O2` (single isomer, unassigned) [112F], the IC50 is 100 to 1000 nM.

Regarding `COc1cncc2c1[C@]1(O)[C@H](O)[C@H](CN3CCC(F)(F)CC3)[C@@H](c3ccccc3)[C@]1(c1ccc(C#N)cc1)O2` (single isomer, unassigned) [113F], the IC50 lay in the range of 100 to 1000 nM.

Consider `COc1cncc2c1[C@]1(O)[C@H](O)[C@H](CNCC(F)F)[C@@H](c3ccccc3)[C@]1(c1ccc(C#N)cc1)O2` (single isomer, unassigned) [115F], for which the IC50 is 100 to 1000 nM.

The assay is the same for the next values; noted with them: MDA-MB-231 cells, 72 hours at 37° C., CellTiter-Glo; read-out: MDA-MB-231 cell proliferation assay (IC50).
Take `COc1cncc2c1[C@]1(O)[C@H](O)[C@H](CN(C)C)[C@@H](c3ccccc3)[C@]1(c1ccc(C#N)cc1)O2` (single isomer, unassigned) [103F]: the IC50 was less than 100 nM.

The record behind these values is patent US10577378B2, “EIF4A-inhibiting compounds and methods related thereto” (eFFECTOR Therapeutics, Inc., priority 2015, dated 2020).
